Measurements reported in patent US20100168129A1, “DRUGS WITH ANTICHOLESTATIC ACTIVITY” (priority 2007, published 2010).
Read-outs that look alike come from different tables or passages of the source.

Legend:
human receptor PXR [1] = target: T1, human receptor PXR (Homo sapiens, UniProt O75469); test: activation of the PXR receptor: CYP3A4 luciferase reporter induction in cell line DPX2; settings: for Mean RLU: cell line DPX2P29; for Induction above DMSO: ratio of luciferase activity to DMSO-treated cells
T1 sequence (O75469 1-434): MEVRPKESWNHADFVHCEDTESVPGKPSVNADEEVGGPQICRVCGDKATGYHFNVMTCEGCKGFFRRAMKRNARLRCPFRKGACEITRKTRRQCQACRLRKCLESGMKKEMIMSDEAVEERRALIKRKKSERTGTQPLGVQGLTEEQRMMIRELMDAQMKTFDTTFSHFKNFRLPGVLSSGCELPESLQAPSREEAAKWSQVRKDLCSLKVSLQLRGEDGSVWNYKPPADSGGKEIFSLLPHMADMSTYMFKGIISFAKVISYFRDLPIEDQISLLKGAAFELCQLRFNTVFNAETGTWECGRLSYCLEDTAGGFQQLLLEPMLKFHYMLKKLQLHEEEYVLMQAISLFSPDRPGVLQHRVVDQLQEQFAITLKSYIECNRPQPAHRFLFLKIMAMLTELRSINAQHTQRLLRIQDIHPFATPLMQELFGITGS
Experimental: (§1) The activity of the new rifamycins is expressed as a ratio between luciferase activity in cells treated with the tested substance and that of the cells treated with DMSO. The viability and morphology of the cells are analyzed by optical microscopy.

[2] = tested on: Micrococcus luteus ATCC 10240; test: plate diffusion method, antibacterial activity and MIC; type: cell-based
Experimental: To verify antibacterial activity, the plate diffusion method is used as described in the pharmacopeia: • A quantity of the sample is weighed and slowly dissolved in 25 ml of methanol R • A quantity of 0.05 M phosphate buffer at pH 7.0 is added so as to obtain the following concentrations: 50 μg/ml, 20 μg/ml, 10 μg/ml and 5 μg/ml • Plates were prepared with appropriate culture medium (agar thickness approximately 2-5 mm) inoculated with a suspension of Micrococcus luteus ATCC 10240, Staphylococcus aureus ATCC 6538 and Escherichia coli ATCC 8739. • 0.1 ml of the different concentrations of each sample were dispensed into the wells formed in the agar plates • The plates were held for 1-2 hours at ambient temperature to allow diffusion of the sample and then incubated at 35-39° C. for not less than 18 hours. • The diameters of the inhibition halos of the compounds were measured with a gauge and compared with those of the reference substance, the results being expressed as percentages.

cell line DPX2 [3] = test: viability and morphology of the cells by optical microscopy
Experimental: as §1

cell line DPX2 [4] = settings: human, 10 μM
Experimental: as §1

human receptor PXR [5] = target: T1, human receptor PXR; settings: 10 μM
Experimental: as §1

[6] = Table A, 5 μg/ml, inhibition halo vs reference standard (rifamycin S for SX1, rifampicin for SX4 and SX5)
[7] = Table A, 10 μg/ml, inhibition halo vs reference standard (rifamycin S for SX1, rifampicin for SX4 and SX5)
[8] = Table A, 50 μg/ml, inhibition halo vs reference standard (rifamycin S for SX1, rifampicin for SX4 and SX5)
[9] = Table B, 5 μg/ml, compared with standard rifampicin
[10] = Table B, 10 μg/ml, compared with standard rifampicin
[11] = Table B, 20 μg/ml, compared with standard rifampicin
[12] = Table B, 50 μg/ml, compared with standard rifampicin

COC1CCOC2(C)Oc3c(C)c(O)c4c(O)c(c(C=NN5CCN(C)CC5)c(O)c4c3C2=O)NC(=O)C(C)CCCC(C)C(O)C(C)C(O)C(C)C(OC(C)=O)C1C (centres unmarked) [Example 1, 3-(4′-methyl-1′-piperazinyl-iminomethyl)-16,17,18,19,28,29-hexahydrorifamycin SV]
Mean RLU (human receptor PXR [1]; 5 μM): 8698 RLU | Induction above DMSO (human receptor PXR [1]; 5 μM): 39.0 | Mean RLU (human receptor PXR [1]; 10 μM): 12069 RLU | Induction above DMSO (human receptor PXR [1]; 10 μM): 54.1 | Mean RLU (human receptor PXR [1]; 20 μM): 12918 RLU | Induction above DMSO (human receptor PXR [1]; 20 μM): 57.9 | Mean RLU (human receptor PXR [1]; 40 μM): 14636 RLU | Induction above DMSO (human receptor PXR [1]; 40 μM): 65.6 | percentage antibacterial activity [2, 6]: 0% | percentage antibacterial activity [2, 7]: 0% | percentage antibacterial activity [2, 8]: 42% | Cell appearance**: cell confluence (%) (cell line DPX2 [3]; 5 μM): 30% | Cell appearance**: morphology (cell line DPX2 [3]; 5 μM): MCM | Cell appearance**: cell confluence (%) (cell line DPX2 [3]; 10 μM): 30% | Cell appearance**: morphology (cell line DPX2 [3]; 10 μM): MCM | Cell appearance**: cell confluence (%) (cell line DPX2 [3]; 20 μM): 30% | Cell appearance**: morphology (cell line DPX2 [3]; 20 μM): MCM | Cell appearance**: cell confluence (%) (cell line DPX2 [3]; 40 μM): 30% | Cell appearance**: morphology (cell line DPX2 [3]; 40 μM): MCM

COC1CCOC2(C)Oc3c(C)c(O)c4c(O)c(c(C=NN5CCN(C)CC5)c(O)c4c3C2=O)NC(=O)C(C)CCCC(C)C2OC(C)(C)OC(C2C)C(C)C(OC(C)=O)C1C (centres unmarked) [Example 3, 3-(4′-methyl-1′-piperazinyl-iminomethyl)-21,23-O-isopropylidene-16,17,18,19,28,29-hexahydrorifamycin SV]
Mean RLU (human receptor PXR [1]; 5 μM): 8052 RLU | Induction above DMSO (human receptor PXR [1]; 5 μM): 36.1 | Mean RLU (human receptor PXR [1]; 10 μM): 10848 RLU | Induction above DMSO (human receptor PXR [1]; 10 μM): 48.6 | Mean RLU (human receptor PXR [1]; 20 μM): 7125 RLU | Induction above DMSO (human receptor PXR [1]; 20 μM): 32.0 | Mean RLU (human receptor PXR [1]; 40 μM): 4243 RLU | Induction above DMSO (human receptor PXR [1]; 40 μM): 19.0 | MIC (Minimum Inhibitory Concentration) ([2]; Table A): >50 µg/mL | percentage antibacterial activity [2, 6]: 0% | percentage antibacterial activity [2, 7]: 0% | percentage antibacterial activity [2, 8]: 0% | Cell appearance**: cell confluence (%) (cell line DPX2 [3]; 5 μM): 30% | Cell appearance**: morphology (cell line DPX2 [3]; 5 μM): MCM | Cell appearance**: cell confluence (%) (cell line DPX2 [3]; 10 μM): 30% | Cell appearance**: morphology (cell line DPX2 [3]; 10 μM): MCM | Cell appearance**: cell confluence (%) (cell line DPX2 [3]; 20 μM): 20% | Cell appearance**: morphology (cell line DPX2 [3]; 20 μM): MCM | Cell appearance**: cell confluence (%) (cell line DPX2 [3]; 40 μM): 20%

CCN1CCN(N=Cc2c3c(O)c4c(O)c(C)c5c(c4c2O)C(=O)C(C)(OCCC(OC)C(C)C(OC(C)=O)C(C)C(O)C(C)C(O)C(C)CCCC(C)C(=O)N3)O5)CC1 (centres unmarked) [Example 6, 3-(4′-ethyl-1′-piperazinyl-iminomethyl)-16,17,18,19,28,29-hexahydrorifamycin SV]
percentage antibacterial activity [2, 9]: 0% | percentage antibacterial activity [2, 10]: 0% | percentage antibacterial activity [2, 11]: 0% | percentage antibacterial activity [2, 12]: 39%

CCOCCN1CCN(N=Cc2c3c(O)c4c(O)c(C)c5c(c4c2O)C(=O)C(C)(OCCC(OC)C(C)C(OC(C)=O)C(C)C(O)C(C)C(O)C(C)CCCC(C)C(=O)N3)O5)CC1 (centres unmarked) [Example 12, 3-[4′-(2-ethoxyethyl)-1′-piperazinyl-iminomethyl]-16,17,18,19,28,29-hexahydrorifamycin SV]
MIC (Minimum Inhibitory Concentration) ([2]; Table B): >50 µg/mL | percentage antibacterial activity [2, 9]: 0% | percentage antibacterial activity [2, 10]: 0% | percentage antibacterial activity [2, 11]: 0% | percentage antibacterial activity [2, 12]: 0%

COC1CCOC2(C)Oc3c(C)c(O)c4c(O)c(c(C=NN5CCN(C(C)C)CC5)c(O)c4c3C2=O)NC(=O)C(C)CCCC(C)C(O)C(C)C(O)C(C)C(OC(C)=O)C1C (centres unmarked) [Example 15, 3-(4′-isopropyl-1′-piperazinyl-iminomethyl)-16,17,18,19,28,29-hexahydrorifamycin SV]
MIC (Minimum Inhibitory Concentration) ([2]; Table B): >50 µg/mL | percentage antibacterial activity [2, 9]: 0% | percentage antibacterial activity [2, 10]: 0% | percentage antibacterial activity [2, 11]: 0% | percentage antibacterial activity [2, 12]: 0%

CO[C@H]1/C=C/O[C@@]2(C)Oc3c(C)c(O)c4c(c3C2=O)C(=O)C(N2CCOCC2)=C(NC(=O)/C(C)=C\C=C\[C@H](C)[C@@H]2OC(C)(C)O[C@@H]([C@@H](C)[C@H](OC(C)=O)[C@@H]1C)[C@@H]2C)C4=O [Example 23, 3-morpholine-21,23 O-isopropylidenerifamycin S, reference compound]
Mean RLU (human receptor PXR [1]; 5 μM): 6537 RLU | Induction above DMSO (human receptor PXR [1]; 5 μM): 29.3 | Mean RLU (human receptor PXR [1]; 10 μM): 7869 RLU | Induction above DMSO (human receptor PXR [1]; 10 μM): 35.3 | Mean RLU (human receptor PXR [1]; 20 μM): 4738 RLU | Induction above DMSO (human receptor PXR [1]; 20 μM): 21.2 | Mean RLU (human receptor PXR [1]; 40 μM): 396 RLU | Induction above DMSO (human receptor PXR [1]; 40 μM): 1.8 | PXR activation, comparison in words (human receptor PXR [1]; compared with the compounds of the invention): decidedly less active | MIC (Minimum Inhibitory Concentration) ([2]; Table A): <5 µg/mL | percentage antibacterial activity [2, 6]: 39% | percentage antibacterial activity [2, 7]: 40% | percentage antibacterial activity [2, 8]: 69% | Cell appearance**: cell confluence (%) (cell line DPX2 [3]; 5 μM): 30% | Cell appearance**: morphology (cell line DPX2 [3]; 5 μM): MCM | Cell appearance**: cell confluence (%) (cell line DPX2 [3]; 10 μM): 30% | Cell appearance**: cell confluence (%) (cell line DPX2 [3]; 20 μM): 10% | Cell appearance**: cell confluence (%) (cell line DPX2 [3]; 40 μM): 0%

CC[C@H](C)C(=O)O[C@H]1CCC=C2C=C[C@H](C)[C@H](CC[C@@H]3C[C@@H](O)CC(=O)O3)[C@H]21 [Mevastafin, Mevastatin]
Cell appearance**: cell confluence (%) (cell line DPX2 [4]): 30% | Cell appearance**: morphology (cell line DPX2 [4]): MCM | Induction above DMSO (human receptor PXR [1]; 10 μM): 3.4 | Mean RLU (human receptor PXR [5]): 758 RLU
